Assays:
[1] = tested on: MK-801-induced PPI disruption; assay: Prepulse inhibition of startle with disruption by MK-801; assay type: in vivo, Wistar rats; conditions: for Percentage of inhibition: % PPI; for Percentage of inhibition / Acoustic tone alone / Startle amplitude on prepulse + pulse trials: pretreatment ralfinamide methanesulfonate 90 mg/kg oral, mean ± SEM; for Acoustic tone alone / Startle amplitude on prepulse + pulse trials: startle amplitude
From the text: Prepulse inhibition (PPI) is a cross-species phenomenon (i.e., it is present in mammals ranging from mice to humans), yet it is relatively impaired among schizophrenic patients. The PPI procedure is used to assess the subject's ability to “gate” or filter environmental information. In the acoustic (startle model) of sensorimotor gating a weak acoustic stimulus (prepulse) decrease the reflexive flinching response (startle) produced by a second, more intense, stimulus (the pulse). Drugs like dizocilpine (MK-801) or amphetamine disrupt PPI and represent an animal model of schizophrenia; antipsychotic drugs are able to prevent PPI deficit. The test is quite useful to screen potential antipsychotic drugs.
Methods: Male Wistar rats, weighing 200-300 g were used. Apparatus: All startle and PPI testing has been performed in four startle chambers. Each ventilated illuminated and sound proof chamber contained a clear non-restrictive Plexiglas cylinder resting on a platform. A high-frequency loudspeaker inside the chamber produced both a continuous background noise of 70 dB and the various acoustic stimuli. Vibrations of the Plexiglas cylinder caused by the whole-body startle response of the animal were transduced into analogue signals by a piezoelectric unit attached to the platform. These signals were then digitized and stored by a computer. Sixty-five readings were taken at 1-ms intervals starting at stimulus onset, and the average amplitude was used to determine the acoustic startle response. Sound levels is given in dB.
Prepulse inhibition session: After 5 min of habituation (background white noise, 70 dB), two types of acoustic stimuli were used: acoustic stimulus alone (120 dB, 40 ms) or the stimulus proceeded by a prepulse (76, 79, 82 dB, 40 ms) applied 100 ms before the stimulus. During each experimental session 20 trials of each type were presented with interstimulus interval of 20 s. The amplitudes were averaged for each individual animal, separately for both types of trials (stimulus alone or stimulus preceded by the prepulse). The degree of prepulse inhibition was shown as a percentage score (% PPI) calculated as […] a difference between the amplitude of the pulse-alone (P) and the amplitude of the prepulse+pulse trials (PP+P), divided by the amplitude of the pulse-alone trials and multiplied by 100. […] Substances and treatments: MK-801 0.2 mg/kg was dissolved in saline and was given i.p. In each experiment, […] were assigned to receive either compounds of the disclosure or vehicle and were tested in the PPI session using a between-subjects design. The order of drug treatment for the first experiment was test-compound, followed by MK-801; for the second experiment rats received test-compound and then amphetamine. Statistical Analysis: Multiple ANOVA was conducted followed by Dunnett's post hoc test.

MAO-B = MAO-B (Rattus norvegicus, UniProt P19643); assay: biochemical
Protocol: The crude homogenate was centrifuged at 2220 rpm for 10 minutes at +4° C. and the supernatant recovered. The pellet was homogenized and centrifuged again. The two supernatants were pooled and centrifuged at 9250 rpm for 10 minutes. The pellet was resuspended in fresh buffer and centrifuged at 11250 rpm for 10 minutes at +4° C. The resulting pellet was stored at −80° C.
The mitochondrial pellet (500 μg protein) was resuspended in 0.1 M phosphate buffer (pH 7.4). 500 μl of the suspension were added to a 50 μl solution of the test compound or buffer, and incubated for 30 min at 37° C. (preincubation) then the substrate (50 μl) was added. […] (^14C-PEA, 0.5 μM).
The amount of neutral and/or acidic metabolites formed as a result of MAO activity was obtained by measuring the radioactivity of the eluate.
The activity of MAO in the sample, corresponding to a percentage of radioactivity compared with the control activity in the absence of the inhibitor, was expressed as nmoles of substrate transformed/mg protein/min.

Dopamine D4.2 = assay: Dopamine receptor radioligand binding assay; conditions: inhibition of specific binding
Protocol: (§1) The assays were performed, under standard conditions, as described in the following publications: Dearry A et al., Nature; 1990; 347: 72-76; Bunzow J R et al., Nature; 1988; 336: 783-787; Sokoloff P. et al., Nature; 1990; 347: 146-151; Van Tol H H M et al., Nature; 1991; 350: 610-614; Van Tol H H M et al., Nature; 1992; 358: 149-152; Sibley D R et al., Trend Pharmacol. Sci.; 1992; 13:61-69.
(§2) Biochemical assay results are presented as the percent inhibition of specific bindings at a single compound concentration. Responses are considered significant for binding activities >50%.

Dopamine D2L = Dopamine D2L (Homo sapiens, UniProt P14416); assay: Dopamine receptor radioligand binding assay; conditions: inhibition of specific binding
Protocol: as §1, §2

Dopamine D2S = Dopamine D2S (Homo sapiens, UniProt P14416); assay: Dopamine receptor radioligand binding assay; conditions: inhibition of specific binding
Protocol: as §1, §2

Dopamine D4.4 = target: T1, Dopamine D4.4 (Homo sapiens, UniProt P21917); assay: Dopamine receptor radioligand binding assay; conditions: inhibition of specific binding
T1 sequence (P21917 1-419): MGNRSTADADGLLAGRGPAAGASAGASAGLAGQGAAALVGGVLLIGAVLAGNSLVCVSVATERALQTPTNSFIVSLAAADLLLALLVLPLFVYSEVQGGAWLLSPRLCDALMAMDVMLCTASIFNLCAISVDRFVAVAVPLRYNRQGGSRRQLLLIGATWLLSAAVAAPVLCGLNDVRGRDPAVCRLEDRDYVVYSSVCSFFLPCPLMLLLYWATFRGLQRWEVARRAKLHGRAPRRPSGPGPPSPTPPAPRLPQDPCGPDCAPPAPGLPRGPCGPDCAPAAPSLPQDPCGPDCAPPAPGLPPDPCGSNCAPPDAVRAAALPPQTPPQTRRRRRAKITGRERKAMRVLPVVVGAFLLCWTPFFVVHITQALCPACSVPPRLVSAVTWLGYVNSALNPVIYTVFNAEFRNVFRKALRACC
Protocol: as §1, §2

Dopamine D1 = Dopamine D1 (Homo sapiens, UniProt P21728); assay: Dopamine receptor radioligand binding assay; conditions: inhibition of specific binding
Protocol: as §1, §2

Dopamine D4.7 = assay: Dopamine receptor radioligand binding assay; conditions: inhibition of specific binding
Protocol: as §1, §2

Dopamine D3 = Dopamine D3 (Homo sapiens, UniProt P35462); assay: Dopamine receptor radioligand binding assay; conditions: inhibition of specific binding
Protocol: as §1, §2

Dopamine D5 = Dopamine D5 (Homo sapiens, UniProt P21918); assay: Dopamine receptor radioligand binding assay; conditions: inhibition of specific binding
Protocol: as §1, §2

[2] = treatment MK-801 0.2 mg/kg i.p.

Chain of Dopamine D1 (P21728 whole entry): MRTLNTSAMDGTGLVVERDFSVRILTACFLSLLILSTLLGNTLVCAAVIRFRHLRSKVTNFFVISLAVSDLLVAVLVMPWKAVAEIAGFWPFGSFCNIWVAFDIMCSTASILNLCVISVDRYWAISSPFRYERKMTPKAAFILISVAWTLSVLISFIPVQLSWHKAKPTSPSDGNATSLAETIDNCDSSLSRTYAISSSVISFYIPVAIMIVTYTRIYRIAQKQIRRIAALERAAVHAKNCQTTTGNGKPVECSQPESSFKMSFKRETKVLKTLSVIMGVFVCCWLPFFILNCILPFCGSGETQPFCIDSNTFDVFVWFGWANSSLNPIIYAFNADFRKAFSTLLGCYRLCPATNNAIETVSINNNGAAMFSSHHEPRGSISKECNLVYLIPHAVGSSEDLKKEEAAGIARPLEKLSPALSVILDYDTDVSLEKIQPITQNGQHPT
Chain of Dopamine D2S (P14416 1-414 isoform P14416-2): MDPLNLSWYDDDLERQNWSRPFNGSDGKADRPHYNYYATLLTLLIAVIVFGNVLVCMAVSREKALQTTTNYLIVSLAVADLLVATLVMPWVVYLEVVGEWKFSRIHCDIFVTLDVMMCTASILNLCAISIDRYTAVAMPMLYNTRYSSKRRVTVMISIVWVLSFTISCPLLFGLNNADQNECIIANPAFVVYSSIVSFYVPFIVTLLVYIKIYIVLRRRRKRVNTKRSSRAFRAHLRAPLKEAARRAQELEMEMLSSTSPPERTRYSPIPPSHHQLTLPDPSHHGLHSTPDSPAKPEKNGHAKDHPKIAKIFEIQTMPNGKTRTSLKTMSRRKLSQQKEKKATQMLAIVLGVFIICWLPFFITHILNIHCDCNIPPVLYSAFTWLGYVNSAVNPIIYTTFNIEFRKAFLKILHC
Chain of MAO-B (P19643 whole entry): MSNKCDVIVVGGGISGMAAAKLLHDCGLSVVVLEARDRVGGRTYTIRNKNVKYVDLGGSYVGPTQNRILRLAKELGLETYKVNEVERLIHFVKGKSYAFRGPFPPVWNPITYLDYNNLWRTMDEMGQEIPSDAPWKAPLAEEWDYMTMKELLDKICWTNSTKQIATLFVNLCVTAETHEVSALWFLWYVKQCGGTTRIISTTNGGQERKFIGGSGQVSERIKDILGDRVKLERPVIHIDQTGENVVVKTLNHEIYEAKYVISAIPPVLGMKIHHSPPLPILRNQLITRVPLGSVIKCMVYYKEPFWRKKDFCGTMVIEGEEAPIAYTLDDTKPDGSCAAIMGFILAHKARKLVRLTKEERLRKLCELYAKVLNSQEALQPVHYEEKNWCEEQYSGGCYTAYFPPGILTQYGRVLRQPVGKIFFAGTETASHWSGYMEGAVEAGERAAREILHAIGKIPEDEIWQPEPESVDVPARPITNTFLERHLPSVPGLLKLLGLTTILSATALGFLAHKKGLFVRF
Chain of Dopamine D3 (P35462 whole entry): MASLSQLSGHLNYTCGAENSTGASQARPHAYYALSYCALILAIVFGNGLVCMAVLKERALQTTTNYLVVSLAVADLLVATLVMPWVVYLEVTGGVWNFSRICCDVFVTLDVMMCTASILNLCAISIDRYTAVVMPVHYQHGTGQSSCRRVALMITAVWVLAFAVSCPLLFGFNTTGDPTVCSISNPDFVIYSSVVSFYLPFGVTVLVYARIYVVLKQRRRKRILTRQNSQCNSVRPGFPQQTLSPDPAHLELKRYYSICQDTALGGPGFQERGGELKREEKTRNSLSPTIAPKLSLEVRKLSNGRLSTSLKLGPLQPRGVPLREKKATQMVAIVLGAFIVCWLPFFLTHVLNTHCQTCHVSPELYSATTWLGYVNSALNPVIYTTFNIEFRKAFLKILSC
Chain of Dopamine D2L (P14416 whole entry): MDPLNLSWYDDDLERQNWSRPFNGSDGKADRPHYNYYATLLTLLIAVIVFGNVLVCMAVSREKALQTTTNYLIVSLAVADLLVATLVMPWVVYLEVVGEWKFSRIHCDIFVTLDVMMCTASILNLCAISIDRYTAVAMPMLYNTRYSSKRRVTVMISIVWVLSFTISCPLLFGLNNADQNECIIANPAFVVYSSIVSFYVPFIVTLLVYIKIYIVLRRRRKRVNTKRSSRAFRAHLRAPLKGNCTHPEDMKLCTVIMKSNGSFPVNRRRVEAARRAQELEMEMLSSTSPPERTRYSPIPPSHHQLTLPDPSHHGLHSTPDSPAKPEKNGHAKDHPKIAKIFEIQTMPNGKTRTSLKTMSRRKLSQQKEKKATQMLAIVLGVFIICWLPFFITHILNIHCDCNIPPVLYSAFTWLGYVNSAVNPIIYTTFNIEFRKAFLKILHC
Chain of Dopamine D5 (P21918 whole entry): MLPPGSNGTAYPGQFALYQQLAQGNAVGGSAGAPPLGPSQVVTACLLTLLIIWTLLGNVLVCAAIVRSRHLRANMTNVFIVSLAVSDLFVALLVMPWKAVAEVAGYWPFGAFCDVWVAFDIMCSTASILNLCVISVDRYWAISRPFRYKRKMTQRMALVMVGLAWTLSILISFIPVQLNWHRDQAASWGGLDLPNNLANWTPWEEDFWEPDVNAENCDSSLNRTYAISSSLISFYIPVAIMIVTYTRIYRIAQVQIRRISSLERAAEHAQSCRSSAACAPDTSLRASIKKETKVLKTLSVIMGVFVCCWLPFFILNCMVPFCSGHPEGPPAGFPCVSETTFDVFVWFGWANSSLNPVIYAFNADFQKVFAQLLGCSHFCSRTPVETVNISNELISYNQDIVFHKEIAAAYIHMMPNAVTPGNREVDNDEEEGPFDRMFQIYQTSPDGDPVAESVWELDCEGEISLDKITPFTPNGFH

## C[C@H](NCc1ccc(OCc2ccccc2F)cc1)C(N)=O [Ralfinamide methanesulfonate, (S)-(+)-2-[4-(2-fluorobenzyloxy)benzylamino]propanamide]
[1]; [2]
  Percentage of inhibition: 21.92 ± 0.40 %
  Acoustic tone alone: 38.50 ± 1.36
  Startle amplitude on prepulse + pulse trials: 30.00 ± 0.90
[1]; treatment vehicle
  Percentage of inhibition: 44.16 ± 3.54%
  Acoustic tone alone: 35.50 ± 0.45
  Startle amplitude on prepulse + pulse trials: 20.00 ± 1.51
[1]; orally, 90 mg/kg
  Reversing the disruptive effect of MK-801 on PPI: active
MAO-B
  IC50: 132 nM
Dopamine D4.2
  % Inhibition at 10 μm: 1%
Dopamine D2L
  % Inhibition at 10 μm: no inhibition
Dopamine D2S
  % Inhibition at 10 μm: no inhibition
Dopamine D4.4
  % Inhibition at 10 μm: no inhibition
Dopamine D1
  % Inhibition at 10 μm: no inhibition
Dopamine D4.7
  % Inhibition at 10 μm: no inhibition
Dopamine D3
  % Inhibition at 10 μm: 7%
Dopamine D5
  % Inhibition at 10 μm: no inhibition
